The text below walks through data of patent publication US4990534A, “Aralkyl esters and processes for their preparation” (priority 1987, dated 1991).

Like-named read-outs stand apart in the source and are kept apart here. Some results are limits rather than exact numbers.

Test [1] deals with synaptosomal uptake, noradrenalin. The test is described as follows: Inhibition of synaptosomal uptake of noradrenalin. In kind it is biochemical. Conditions: rat cerebral cortex synaptosomes, 50 nM [3H]noradrenaline, pH 7.4, 37° C. How it is done: (§1) Inhibition of the Synaptosomal Uptake of Monoamines
(§2) Crude synaptosome preparations from rat cerebral cortex were made by homogenizing the tissues in 10 volumes of ice-cold 0.32M sucrose with all-glass Potter'-Elvehjem's homogenizers. The homogenates were centrifuged at 800 g at +2° C. for 10 min. The supernatants were centrifuged at 12000 g at +2° C. for 10 min, and the pellets were rehomogenized in 0.32M sucrose to the original volume. The incubation of the preparations with [^14 C]serotonin plus [^3 H]noradrenaline with final concentrations of 50 nM of each amine was performed in a Micronic PPN Storage-Block-96 (Flow Laboratories) with 8×12 wells using two rows at each incubation. Four to five different concentrations of two test compounds in duplicates were examined at each incubation. Fifty microliters of the synaptosomal preparation, 400 μl of the Krebs-Henseleit's buffer, pH 7.4, containing 5.6 mM glucose, 1.1 mM ascorbic acid, 0.13 mM disodium edetate, and 50 μM pargyline, and 25 μl of the inhibitor or distilled water were added to the wells. The solutions were mixed by vortexing the block for 10 s. After 10-min preincubation at 37° C. in a water bath, 25 μl of the solutions of the radioactively labeled amines was added to the two rows with a Titretec Multicannel Pipette, type 12-Channel (Flow Laboratories). The reaction was immediately started by vortexing the block for 10 s on a Super-Mixer, and the incubation was continued for 2 min at 37° C. The uptake reaction was stopped by filtration and washing for 15 s with ice-cold 0.15M NaCl through a Whatman GF/B glass filter paper in a 24-channel Cell Harvester (Brandel) using the standard harvesting probe. The filters were left to dry in room temperature for about 1 h. The punched filters were transformed to counting vials, 10 mL of the scintillation liquid (Aquasol, NEN) was added, and vials were shaken and allowed to stand for 1 h before counting. The radioactivety was measured in a Packard Tri Carb liquid scintillation photometer. The active uptake of the amines was defined as the difference between the accumulation of the radioactivity in the absence (quadriplicates) and the presence (quadriplicates) of selective uptake inhibitors, determined at each incubation. These inhibitors were citalopram (0.3 μM) for the serotonin uptake and maprotiline (1 μM) for the norepinephrine uptake. The inhibition was calculated in percent of the active uptake. The IC50 values were obtained from log concentration-response curves.

Test [2] relates to synaptosomal uptake, serotonin. The test is described as follows: Inhibition of synaptosomal uptake of serotonin. In kind it is biochemical. Conditions: rat cerebral cortex synaptosomes, 50 nM [14C]serotonin, pH 7.4, 37° C. How it is done:
as §1, §2

In test [3] the test system is cholinergic responses (oxotremorine-induced tremor). Kind of test: Potentiation of oxotremorine-induced tremor in rats. It is filed as in vivo, rat (Sprague Dawley). To be noted: for minimal effective dose: Rattus norvegicus. The protocol: Potentiation of cholinergic responses
Studies on oxotremorine-induced tremor in rats
Male rats (Sprague Dawley Alab Laboratorietjanst AB, Sollentuna, Sweden) weighing 150-180 g, 35-40 days of age, were used. The animals were allowed free access to food (R3, Ewos AB, Sodertalje, Sweden) and water until the start of the experiments. The test compounds were injected intraperitoneally (i.p.) 30 min before injection of oxotremorine into the neck (s.c.). Tremor intensity was assessed visually for a 60 min period following the injection of oxotremorine in rat housed in Macrolon cages (25×25×30 cm) (tree per cage). The treshold dose of oxotremorine for eliciting tremor in rat is 200 μg/kg.
Tremor intensity was scored using the following rating scale: 0=no tremor; 1=slight tremor (moderate, discontinuous tremor); 2=strong tremor (intense, continuous tremor involving the whole body). The animals were scored 5, 10, 15, 30 and 60 min after injection of oxotremorine. The tremor was scored for a period of 30 seconds.
The values for each observation were summed over the entire observation period (5-60 min) and their median values for each group were calculated (total median score). Mann-Whitney U-test (two-tailed) was used to determine differences between the control oxotremorine group and test groups receiving the compounds+oxotremorine. It should be noted that a control group receiving oxotremorine alone was always run concurrently with each compound tested.
The lowest dose causing a significant (p<0.05) potentiation of the oxotremorine response was determined from log-dose response curves.

The test system of test [4] is neuronal 5-hydroxytryptamine (5-HT) uptake. To be noted: U.S. Pat. No. 4 237 311; cited from earlier work.
Another test has as its system central nervous system. To be noted: man; U.S. Pat. No. 4 237 311; cited from earlier work.
The subject of another test is cholinergic responses. Conditions: U.S. Pat. No. 4 469 707; cited from earlier work.
Setting [5] is: i.p. 30 min before oxotremorine s.c., p<0.05, scored 5-60 min.
Where [6] appears, read: ip, read-out: Potentiation of OTMN tremor in rat (lowest dose causing a significant potentiation), i.p. 30 min before oxotremorine s.c., p<0.05, scored 5-60 min.
The mark [7] stands for this setting: ip, i.p. 30 min before oxotremorine s.c., p<0.05, scored 5-60 min, read-out: Potentiation of OTMN tremor in rat (lowest dose causing a significant potentiation).

Turning to “1-(4-Chlorophenyl)-2-methyl-2-propyl SS/RS-2-amino-3-methylpentanoate [Example 15]”, the EC50 (usually the concentration needed to bring the measured effect to its halfway point) came to 3.1 µM in test [1] and 8 µM in test [2]. Moreover, the “Potentiation of OTMN tremor in rat (lowest dose causing a significant potentiation)” value in test [3] (setting [5]) came to 10 mg/kg.

In the case of `CC(C)C(N)C(=O)OC(C)(C)Cc1ccc(Cl)cc1` (single isomer, unassigned) [Example 27, 1-(4-chlorophenyl)-2-methyl-2-propyl 2-amino-3-methyl-butanoate], the 50% effective concentration (EC50) in test [1] was found to be 1.7 µM; in test [2] it was 3.3 µM. In test [3] (setting [5]), the “Potentiation of OTMN tremor in rat (lowest dose causing a significant potentiation)” value worked out at 10 mg/kg.

Turning to `CC(C)C(N)C(=O)OC(C)(C)Cc1ccc(Cl)cc1` (single isomer, unassigned; (+)) [Example 26, (+)-1-(4-Chlorophenyl)-2-methyl-2-propyl 2-amino-3-methylbutanoate], the values for the EC50 in test [1] and in test [2] were 1.8 µM and 8.7 µM, respectively. The minimal effective dose in test [3] (setting [6]) came out at 20 mg/kg.

For `CC(N)C(=O)OC(C)(C)Cc1ccc(Cl)cc1` (centres unmarked) [Alaproclate, reference compound], the figures for the EC50 in test [1] and in test [2] were above 10 µM and 0.12 µM, respectively. The minimal effective dose in test [3] (setting [6]) amounted to 5 mg/kg. Also, the “tremor response induced by a threshold dose of oxotremorine (in words)” value in test [3] (threshold dose of oxotremorine) is listed as “enhance the tremor response”. The “effect on neuronal 5-HT uptake (in words)” value in test [4] is recorded as “blocking the neuronal 5-hydroxytryptamine (5-HT) uptake”. The “antidepressive activity (in words)” value in the test on central nervous system is recorded as “antidepressive activity combined with a reduced frequency of side effects”. Further, the “effect on cholinergic responses (in words)” value in the test with cholinergic responses is “potentiating effect on cholinergic responses”.

`CCC(N)C(=O)OC(C)(C)Cc1ccc(Cl)cc1` (centres unmarked) [Example 1, 1-(4-Chlorophenyl)-2-methyl-2-propyl 2-aminobutanoate]: the EC50 in test [1] stood at 8 µM; in test [2] it was 2.8 µM. For the same molecule, the minimal effective dose in test [3] (setting [6]) was 2.5 mg/kg.

Consider `CCC(N)C(=O)OC(C)(C)Cc1ccc(F)cc1` (centres unmarked) [Example 2, 1-(4-fluorophenyl)-2-methyl-2-propyl 2-aminobutanoate], for which the figures for the concentration giving a half-maximal response (EC50) in test [1] and in test [2] were 7 µM and 3 µM, respectively. The minimal effective dose in test [3] (setting [6]) was found to be 10 mg/kg.

Consider `CCCC(N)C(=O)OC(C)(C)Cc1ccc(F)cc1` (centres unmarked) [Example 3, 1-(4-fluoropnenyl)-2-methyl-2-propyl 2-aminopentanoate], for which the EC50 in test [1] is 3.2 µM; in test [2], 6 µM. The minimal effective dose in test [3] (setting [7]) was determined as 10 mg/kg.

As to `CCCC(N)C(=O)OC(C)(C)Cc1ccc(Cl)cc1` (centres unmarked) [Example 4, 1-(4-Chlorophenyl)-2-methyl-2-propyl 2-aminopentanoate], the half-maximal effective concentration (EC50) in test [1] was 1.5 µM; in test [2], 2.3 µM. Moreover, the minimal effective dose in test [3] (setting [7]) was 2.5 mg/kg.

On to `C=CCC(N)C(=O)OC(C)(C)Cc1ccc(Cl)cc1` (centres unmarked) [Example 5, 1-(4-Chlorophenyl)-2-methyl-2-propyl 2-amino-4-pentenoate], for which the EC50 in test [1] is 2.5 µM; in test [2], 3.6 µM. For the same molecule, the minimal effective dose in test [3] (setting [7]) came to 20 mg/kg.

For `C#CCC(N)C(=O)OC(C)(C)Cc1ccc(Cl)cc1` (centres unmarked) [Example 7, 1-(4-Chlorophenyl)-2-methyl-2-propyl 2-amino-4-pentynoate], the EC50 in test [1] and in test [2] was above 10 µM in each case. Also, in test [3] (setting [7]), the minimal effective dose was 10 mg/kg.

Consider `CC(C)CC(N)C(=O)OC(C)(C)Cc1ccc(Cl)cc1` (centres unmarked) [Example 11, 1-(4-Chlorophenyl)-2-methyl-2-propyl 2-amino-4-methylpentanoate], for which the EC50 in test [1] was 3.4 µM; in test [2] it was 8 µM. Also, the minimal effective dose in test [3] (setting [6]) is 10 mg/kg.

Turning to `CCC(C)C(N)C(=O)OC(C)(C)Cc1ccc(Cl)cc1` (centres unmarked) [Example 12, 1-(4-Chlorophenyl)-2-methyl-2-propyl 2-amino-3-methylpentanoate], the half-maximal effective concentration (EC50) was 3.2 µM in test [1] and 6.5 µM in test [2]. The minimal effective dose in test [3] (setting [6]) was found to be 20 mg/kg.

Consider `CC(C)C(N)C(=O)OC(C)(C)Cc1ccc(F)cc1` (centres unmarked) [Example 13, 1-(4-Fluorophenyl)-2-methyl-2-propyl 2-amino-3-methylbutanoate], for which the values for the EC50 in test [1] and in test [2] were 2.9 µM and 10 µM, respectively. The minimal effective dose in test [3] (setting [7]) came out at 20 mg/kg.

On to `CC(C)C(N)C(=O)OC(C)(C)Cc1cc(Cl)cc(Cl)c1` (centres unmarked) [Example 14, 1-(3,5-Dichlorophenyl)-2-methyl-2-propyl 2-amino-3-methylbutanoate], for which the EC50 in test [1] was above 10 µM; in test [2] it was 4 µM. In test [3] (setting [7]), the minimal effective dose turned out to be 10 mg/kg.

`O=C1CCCN1CC#CCN1CCCC1` [oxotremorine, reference compound]: the minimal effective dose in test [3] (sc, read-out: threshold dose of oxotremorine for eliciting tremor in rat, s.c., oxotremorine alone) was found to be 0.2 mg/kg.
